Experimental data as given in ChEMBL document CHEMBL2029340 (J Med Chem, 2012).
Activity calls are given as the source filed them. No cut-off for these calls is given here.

Experiments:
Influenza A virus [1] = test: Antiviral activity against amantidine-resistant Influenza A virus A/WSN/33(H1N1) infected in MDCK cells assessed as inhibition of virus-induced cytopathic effects after 3 days by CCK-8 assay; assay type: functional, organism-based; details: A/WSN/1933(H1N1), 72 h
Influenza A virus [2] = test: Antiviral activity against amantidine-resistant Influenza A virus A/WSN/33(H1N1) infected in MDCK cells assessed as reduction in plaque formation at 1 uM after 3 days by microscopy; assay type: functional, organism-based; details: A/WSN/1933(H1N1)
Influenza A virus [3] = test: Antiviral activity against tamiflu-resistant Influenza A virus A/WSN/33 (H1N1) harboring neuraminidase 274Y mutant infected in MDCK cells assessed as reduction of nucleoprotein antigen level after 3 days; assay type: functional, organism-based, A/WSN/1933(H1N1)
Influenza A virus [4] = test: Antiviral activity against Influenza A virus A/WSN/1933 (H1N1) harboring nucleoprotein 52H mutant infected in MDCK cells assessed as reduction of nucleoprotein antigen level after 3 days; assay type: functional, organism-based
Influenza A virus [5] = test: Antiviral activity against amantidine-resistant Influenza A virus A/WSN/33(H1N1) infected in MDCK cells assessed as reduction in plaque formation at 0.3 uM after 3 days by microscopy; assay type: functional, organism-based; details: A/WSN/1933(H1N1)
Influenza A virus [6] = test: Antiviral activity against Influenza A virus A/WSN/1933 (H1N1) harboring wild type nucleoprotein 52Y infected in MDCK cells assessed as reduction of nucleoprotein antigen level after 3 days; assay type: functional, organism-based; details: 72 h
Influenza A virus [7] = test: Antiviral activity against amantidine-resistant Influenza A virus A/WSN/33(H1N1) infected in MDCK cells assessed as reduction in plaque formation after 3 days by microplate counting of infectious particles assay; assay type: functional, organism-based; details: A/WSN/1933(H1N1), 72 h
Influenza A virus [8] = test: Antiviral activity against amantidine-resistant Influenza A virus A/WSN/33(H1N1) infected in MDCK cells assessed as reduction in plaque formation after 3 days by microscopy; assay type: functional, organism-based; details: A/WSN/1933(H1N1)

Row | Compound | IC50 (Influenza A virus [1]) [µM] | also measured
1 | NC12CC3CC(CC(C3)C1)C2 [AMANTADINE] | > 50 | 
2 | COc1ccccc1-n1nnc(C)c1C(=O)N1CCN(c2ccc([N+](=O)[O-])cc2)CC1 | 17 | 
3 | COc1ccc(-n2nnc(C)c2C(=O)N2CCN(c3ccc([N+](=O)[O-])cc3Cl)CC2)cc1 | 5.61 | 
4 | COc1cccc(OC)c1-n1nnc(C)c1C(=O)N1CCN(c2ccc([N+](=O)[O-])cc2Cl)CC1 | 1.34 | 
5 | COc1ccccc1-n1nnc(C)c1C(=O)N1CCCN(c2ccc([N+](=O)[O-])cc2Cl)CC1 | 35.5 | 
6 | Cc1nnn(-c2ccc(Cl)cc2)c1C(=O)N1CCN(c2ccc([N+](=O)[O-])cc2Cl)CC1 | 4.93 | 
7 | Cc1nnn(-c2cccc(Cl)c2)c1C(=O)N1CCN(c2ccc([N+](=O)[O-])cc2Cl)CC1 | 4.89 | 
8 | COc1ccccc1-n1nnc(C)c1C(=O)N1CCN(c2ccccc2Cl)CC1 | 48.1 | 
9 | COc1ccccc1-c1ccccc1C(=O)N1CCN(c2ccc([N+](=O)[O-])cc2Cl)CC1 | 1.57 | 
10 | COc1ccccc1-n1nnc(C)c1C(=O)N1CCN(c2ccccc2)CC1 | > 50 | 
11 | Cc1nnn(-c2ccccc2)c1C(=O)N1CCN(c2ccc([N+](=O)[O-])cc2Cl)CC1 | 3.13 | 
12 | Cc1nnn(-c2ccccc2O)c1C(=O)N1CCN(c2ccc([N+](=O)[O-])cc2Cl)CC1 | 1.58 | 
13 | Cc1ccccc1-n1nnc(C)c1C(=O)N1CCN(c2ccc([N+](=O)[O-])cc2Cl)CC1 | 2.4 | 
14 | COc1ccccc1-c1onc(C)c1C(=O)N1CCN(c2ccc([N+](=O)[O-])cc2Cl)CC1 | 0.71 | 
15 | Cc1nnn(-c2ccccc2OC(C)C)c1C(=O)N1CCN(c2ccc([N+](=O)[O-])cc2Cl)CC1 | 8.42 | 
16 | Cc1[nH]nc(-c2ccccc2)c1C(=O)N1CCN(c2ccc([N+](=O)[O-])cc2Cl)CC1 | 3.38 | 
17 | COc1cc([N+](=O)[O-])ccc1N1CCN(C(=O)c2c(C)nnn2-c2ccccc2OC)CC1 | > 50 | 
18 | COc1cccc(-n2nnc(C)c2C(=O)N2CCN(c3ccc([N+](=O)[O-])cc3Cl)CC2)c1 | 5.35 | 
19 | O=C(c1ccccc1-c1ccccc1)N1CCN(c2ccc([N+](=O)[O-])cc2Cl)CC1 | 5.24 | 
20 | Cc1[nH]nc(-c2ccccc2Cl)c1C(=O)N1CCN(c2ccc([N+](=O)[O-])cc2Cl)CC1 | 0.72 | 
21 | CCOc1ccccc1-n1nnc(C)c1C(=O)N1CCN(c2ccc([N+](=O)[O-])cc2Cl)CC1 | 3.22 | 
22 | CC(=O)c1ccccc1-n1nnc(C)c1C(=O)N1CCN(c2ccc([N+](=O)[O-])cc2Cl)CC1 | 13.7 | 
23 | COc1ccccc1-n1nncc1C(=O)N1CCN(c2ccc([N+](=O)[O-])cc2Cl)CC1 | 8.36 | 
24 | Cc1nnn(-c2ccccc2Cl)c1C(=O)N1CCN(c2ccc([N+](=O)[O-])cc2Cl)CC1 | 1.2 | 
25 | COc1ccccc1-n1nnc(C)c1C(=O)N1CCN(c2ccc([N+](=O)[O-])cc2Cl)CC1 | 0.68 | Activity (Influenza A virus [2]): Active; IC50 (Influenza A virus [3]): 1.11 µM; IC50 (Influenza A virus [4]): > 50 µM; Activity (Influenza A virus [5]): Active; IC50 (Influenza A virus [6]): 1.4 µM; IC50 (Influenza A virus [7]): 0.23 µM
26 | CCc1nnn(-c2ccccc2OC)c1C(=O)N1CCN(c2ccc([N+](=O)[O-])cc2Cl)CC1 | > 50 | 
27 | Cc1onc(-c2ccccc2)c1C(=O)N1CCN(c2ccc([N+](=O)[O-])cc2Cl)CC1 [NUCLEOZIN] | 0.32 | Activity (Influenza A virus [8]): Dose-dependent effect; IC50 (Influenza A virus [3]): 0.66 µM; IC50 (Influenza A virus [4]): > 50 µM; Activity (Influenza A virus [5]): Active; IC50 (Influenza A virus [6]): 0.49 µM; IC50 (Influenza A virus [7]): 0.1 µM
28 | Cc1noc(-c2ccccc2)c1C(=O)N1CCN(c2ccc([N+](=O)[O-])cc2Cl)CC1 | 4.83 | 
